In publication PMC7997411, “Discovery and Optimization of Selective Inhibitors of Meprin α (Part II)” (Pharmaceuticals, 2021):

What was measured:
[1] = target: T1, MMP1 (Homo sapiens, UniProt P03956); test: MMP assay (fluorogenic substrate ES010); assay type: biochemical
T1 construct: purchased R&D Systems 901-MP
T1 sequence (P03956 100-469): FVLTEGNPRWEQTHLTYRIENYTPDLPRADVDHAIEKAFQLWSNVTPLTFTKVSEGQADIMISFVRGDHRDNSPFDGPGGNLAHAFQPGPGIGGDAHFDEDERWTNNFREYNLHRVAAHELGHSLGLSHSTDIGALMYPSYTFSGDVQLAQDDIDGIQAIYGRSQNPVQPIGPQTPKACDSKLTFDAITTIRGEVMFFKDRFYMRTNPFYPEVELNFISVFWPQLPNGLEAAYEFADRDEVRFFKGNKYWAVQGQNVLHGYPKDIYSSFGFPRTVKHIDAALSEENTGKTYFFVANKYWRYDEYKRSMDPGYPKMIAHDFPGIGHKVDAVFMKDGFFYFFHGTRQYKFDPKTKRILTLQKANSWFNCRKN
Experimental: (§1) MMP-1, MMP-2, MMP-8, MMP-9, MMP-10, MMP-13, MMP-14, ADAM10, ADAM17 and Mca-KPLGL-Dpa-AR-NH2 fluorogenic peptide substrate were purchased from R&D Systems (cat # 901-MP, 902-MP, 908-MP, 911-MP, 910-MP, 511-MM, 918-MP, 936-AD, 930-ADB, and ES010, respectively). All common chemicals were purchased from Sigma. NFF449 was purchased from Tocris (cat# 1391) and actinonin was from Sigma-Aldrich, St. Louis, MO, USA (cat# 01809).
(§2) All assays followed the same general protocol. 5 µL of 2× enzyme solution (5 nM) in assay buffer (50 mM Tricine, 50 mM NaCl, 10 mM CaCl2, 0.05% Brij-35, pH 7.5) were added to solid-bottom black 384 plates (Nunc, cat# 264705). Next, test compounds and pharmacological controls were added to corresponding wells using a 384-pin tool device (V&P Scientific, San Diego). After 30 min incubation at RT, the reactions were started by addition of 5 µL of 2× solutions of MMP substrate (R&D Systems cat#: ES010, 20 µM). Reactions were incubated at RT for 1 h, after which the fluorescence was measured using the Synergy H4 multimode microplate reader (Biotek Instruments) (λexcitation = 324 nm, λemission = 390 nm). All compounds were tested in 10-point, 1:3 serial dilutions dose-response format starting with highest concentration of 100 µM. IC50 values were determined using non-linear regression analysis using the GraphPad Prism 8.0 suite of programs.

[2] = target: T2, MMP10 (Homo sapiens, UniProt P09238); test: MMP assay (fluorogenic substrate ES010); assay type: biochemical
T2 construct: purchased R&D Systems 910-MP
T2 sequence (P09238 99-476): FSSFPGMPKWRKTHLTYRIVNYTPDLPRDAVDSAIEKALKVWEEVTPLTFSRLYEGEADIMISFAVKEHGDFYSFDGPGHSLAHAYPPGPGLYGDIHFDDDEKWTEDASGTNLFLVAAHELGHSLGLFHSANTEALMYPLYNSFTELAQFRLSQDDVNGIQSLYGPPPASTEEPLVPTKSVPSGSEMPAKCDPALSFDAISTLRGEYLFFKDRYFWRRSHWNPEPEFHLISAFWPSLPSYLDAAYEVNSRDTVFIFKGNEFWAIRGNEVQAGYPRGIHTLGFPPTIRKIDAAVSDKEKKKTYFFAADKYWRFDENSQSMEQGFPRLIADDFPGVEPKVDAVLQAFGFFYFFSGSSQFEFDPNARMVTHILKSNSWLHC
Experimental: as §1, §2

[3] = target: T3, meprin α (Homo sapiens, UniProt Q16819); test: Meprin α assay in a 384-well plate (fluorogenic substrate Mca-YVADAPK-K(Dnp)); assay type: biochemical; conditions: pre-incubation with meprin α for 0–3 h
T3 construct: Strep-tag; made in house; host or cells: BTI-TN-5B1-4 insect cells (baculovirus, amplified in Sf9)
T3 sequence (Q16819 66-746): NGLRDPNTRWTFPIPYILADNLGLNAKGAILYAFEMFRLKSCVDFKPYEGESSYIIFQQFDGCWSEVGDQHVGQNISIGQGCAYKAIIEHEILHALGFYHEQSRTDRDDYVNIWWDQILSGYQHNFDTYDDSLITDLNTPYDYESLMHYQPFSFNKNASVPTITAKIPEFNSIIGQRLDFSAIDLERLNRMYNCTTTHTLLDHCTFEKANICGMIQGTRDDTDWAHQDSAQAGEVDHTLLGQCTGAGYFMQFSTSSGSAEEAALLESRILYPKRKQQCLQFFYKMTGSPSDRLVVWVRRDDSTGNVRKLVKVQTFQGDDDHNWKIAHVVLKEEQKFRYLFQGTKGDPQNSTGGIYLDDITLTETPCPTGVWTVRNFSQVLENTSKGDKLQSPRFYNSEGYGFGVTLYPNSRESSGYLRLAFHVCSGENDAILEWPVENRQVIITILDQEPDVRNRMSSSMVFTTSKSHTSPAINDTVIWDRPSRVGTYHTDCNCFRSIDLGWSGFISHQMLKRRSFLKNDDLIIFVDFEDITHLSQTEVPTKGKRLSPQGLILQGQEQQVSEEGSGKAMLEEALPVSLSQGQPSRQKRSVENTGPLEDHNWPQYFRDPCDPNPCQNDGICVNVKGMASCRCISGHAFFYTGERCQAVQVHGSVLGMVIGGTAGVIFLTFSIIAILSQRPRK

[4] = test system: WM266-4 (skin melanoma), HEK293 (kidney), and BJ (skin fibroblasts) cells; test: Cell viability, CellTiter Glo assay after 72 h treatment; assay type: cell-based
Experimental: (§3) Figure 6 Characterization of SR24717 for effects on cell viability and cytotoxicity. (A) Effect of SR24717 on viability of WM266-4 (skin melanoma), HEK293 (kidney), and BJ (skin fibroblasts) cells. CellTiter Glo™ assay (Promega) was used after 72 h treatment. (B) Effect of SR24717 on viability of HEK293 (kidney) and BJ (skin fibroblasts) cells. The CellTox Green™ assay (Promega) was used. All experiments performed as 10-point 3-fold concentration-response curves in triplicate.
Test compounds were solubilized in 100% DMSO and added to polypropylene 384-well plates (Greiner cat# 781280). 1250 of BJ skin fibroblasts or primary melanocytes were plated in 384-well plates in 8 µL of serum-free media (HybriCare for BT474, EMEM for HEK293). […] Luminescence was recorded using a Biotek Synergy H1 multimode microplate reader. Viability was expressed as a percentage relative to wells containing media only (0%) and wells containing cells treated with DMSO only (100%). Three parameters were calculated on a per-plate basis: (a) the signal-to-background ratio (S/B), (b) the coefficient for variation (CV; CV = (standard deviation/mean) × 100) for all compound test wells, and (c) the Z’-factor. IC50 values were calculated by fitting normalized data to sigmoidal log vs. response equation utilizing non-linear regression analysis from GraphPad Prism 8.

[5] = test system: HEK293 (kidney) and BJ (skin fibroblasts) cells; test: Cytotoxicity, CellTox Green assay; assay type: cell-based
Experimental: as §3

[6] = target: MMP3 (Homo sapiens, UniProt P08254); test: MMP assay (fluorogenic substrate ES010); assay type: biochemical
Chain of MMP3 (P08254 100-477, species assumed): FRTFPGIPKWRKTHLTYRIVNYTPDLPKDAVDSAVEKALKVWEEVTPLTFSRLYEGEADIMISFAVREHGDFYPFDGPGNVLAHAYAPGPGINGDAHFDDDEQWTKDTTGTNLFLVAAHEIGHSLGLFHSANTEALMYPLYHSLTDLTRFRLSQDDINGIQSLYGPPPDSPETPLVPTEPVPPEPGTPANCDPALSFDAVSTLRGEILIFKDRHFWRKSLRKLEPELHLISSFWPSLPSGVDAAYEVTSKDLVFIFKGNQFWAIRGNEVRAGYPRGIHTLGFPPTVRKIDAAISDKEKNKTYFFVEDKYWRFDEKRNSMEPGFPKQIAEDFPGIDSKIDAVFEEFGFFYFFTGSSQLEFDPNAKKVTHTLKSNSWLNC
Experimental: as §2

Row | IC50 [1] [µM] | IC50 [2] [µM] | time dependence of inhibition: change in IC50 values [3] | IC50 [6] [µM] | SMILES | concentration at which negative effects on viability were observed [4] [µM] | concentration at which cytotoxicity was observed [5] [µM]
1 | 0.1 | – | – | – | CCCCC[C@H](CC(=O)NO)C(=O)N[C@H](C(=O)N1CCC[C@H]1CO)C(C)C [Actinonin, actinonin, reference compound] | – | –
2 | – | > 100 | no change in IC50 values | > 100 | COc1cc(OC)nc(SCc2nnc(SCC(=O)NO)n2-c2ccc(N(C)C)cc2)n1 [SR24717] | 100 | 100
